What was measured:
[1] = system: HT-1080.hPSMA tumor cells; experiment: Flow cytometry on HT-1080.hPSMA cells; type: cell-based; conditions: 250 nM
Procedure: (§1) Selection results were decoded with C++^[ [61] ^] and visualized using MATLAB R2019b (MathWorks). EFs were calculated by dividing the DNA sequence counts for each hit compound by the average DNA sequence count from the corresponding DEL screening. Additionally, Z‐score values were calculated following methods previously published,^[ [60] ^] as present in Supporting Information. Hit compounds with high EFs in the target protein selections and low EFs in the negative controls (anti‐target and streptavidin selections) were selected for hit validation activities. All compounds were synthesized using either solid‐phase peptide synthesis or solution‐phase methodologies. Affinities of fluorescein‐bearing hits were determined by FP or ELISA measurements. […] ACP3 colorimetric inhibition assay was performed with serially diluted compounds at a fixed concentration (5 mM in PBS) of para‐nitrophenyl phosphate as substrate. Binding kinetics were assessed on a Biacore X100 instrument with the target protein immobilized on a CM5 chip at 4′000 RUs. Cell binding of fluorescent ligands was evaluated using flow cytometry against antigen‐positive and antigen‐negative (wild‐type) cancer cells. in vitro tissue uptake of ^177Lu‐labelled DOTAGA PSMA‐radioligands was measured via autoradiography. Prism 9 software (GraphPad Software) was used for data analysis of FP, ELISA, PD‐10, SPR, and enzymatic assay measurements. SPR sensograms were fitted with the Biacore X100 Evaluation Software. Flow cytometry data was processed with the FlowJo 10.4 software.
HT1080.hPSMA and PC3.hACP3 cell lines were generated by lentiviral transduction on wild type cells (HT1080.wt and PC3.wt), according to published procedures9. […]
Cancer cells were detached with an Accutase® cell detachment solution, resuspended in a standard culture medium, and transferred to falcon tubes. Cells were counted and centrifuged at 400 rcf for 3 min. […] Data were acquired halting the measurement at 10´ 000 events on a Cytoflex S flow cytometer (Beckman Coulter), and analyzed using the FlowJo software v10 (BD Biosciences). […]

GCP3 = target: T1, GCP3 (Homo sapiens, UniProt Q9Y3Q0); experiment: Fluorescence polarization (FP) affinity against GCP3; type: binding; conditions: fluoresceinated compounds
T1 construct: Avi-tag; made in house; host or cells: CHO cells
Procedure: Hits obtained from FM‐DEL1 (A1452 and A3113) and FM‐DEL2 (A3113/B423) were re‐synthesized as stereo‐chemically pure off‐DNA compounds derivatized with a C6 linker featuring a fluorescein moiety (coupled to fluorescein isothiocyanate‐FITC) (compounds 1–6) [Figure 2E]. The binding affinity against PSMA and GCP3 (KD) of fluoresceinated compounds 1–6 was measured by fluorescence polarization (FP). […] The superiority of compound 5 (S‐configuration) in binding PSMA over compound 6 (R‐configuration) was confirmed by molecular docking studies [Figure S48, Supporting Information]. […] The presence of the sole building block A3113 on the 3‐iodo‐phenylalanine scaffold in the S‐configuration gives adequate selectivity for PSMA over GCP3. […]
(§2) Selection results were decoded with C++^[ [61] ^] and visualized using MATLAB R2019b (MathWorks). EFs were calculated by dividing the DNA sequence counts for each hit compound by the average DNA sequence count from the corresponding DEL screening. Additionally, Z‐score values were calculated following methods previously published,^[ [60] ^] as present in Supporting Information. […] Affinities of fluorescein‐bearing hits were determined by FP or ELISA measurements. […] Binding kinetics were assessed on a Biacore X100 instrument with the target protein immobilized on a CM5 chip at 4′000 RUs. […]
(§3) 2.11 Fluorescence polarization (FP) measurements with fluoresceine-labelled […]

PSMA [2] = target: T2, PSMA (Homo sapiens, UniProt Q04609); experiment: Fluorescence polarization (FP) affinity against PSMA; type: binding; conditions: fluoresceinated compounds
T2 construct: Avi-tag; made in house; host or cells: CHO cells
Procedure: Hits obtained from FM‐DEL1 (A1452 and A3113) and FM‐DEL2 (A3113/B423) were re‐synthesized as stereo‐chemically pure off‐DNA compounds derivatized with a C6 linker featuring a fluorescein moiety (coupled to fluorescein isothiocyanate‐FITC) (compounds 1–6) [Figure 2E]. The binding affinity against PSMA and GCP3 (KD) of fluoresceinated compounds 1–6 was measured by fluorescence polarization (FP). […] The superiority of compound 5 (S‐configuration) in binding PSMA over compound 6 (R‐configuration) was confirmed by molecular docking studies [Figure S48, Supporting Information]. […] The presence of the sole building block A3113 on the 3‐iodo‐phenylalanine scaffold in the S‐configuration gives adequate selectivity for PSMA over GCP3. The addition of the second building block (B423) enhances both affinity and selectivity for the target.
as §2, with “RUs. Cell binding of fluorescent ligands was evaluated using flow cytometry against antigen‐positive and antigen‐negative (wild‐type) cancer cells. in vitro tissue uptake of ^177Lu‐labelled DOTAGA PSMA‐radioligands was measured via autoradiography.” for “RUs.”
(§4) The protein was then concentrated using Vivaspin® 20 centrifugal concentrators (30’000 Da molecular weight cutoff, Sartorius, #VS2012) and then purified by SEC or PD-10 column. The fractions were measured (absorption at 280 nm) on a Nanodrop 2000 Spectrophotometer to combine protein-containing fractions. […]
as §3

recombinant human ACP3 = target: T3, recombinant human ACP3 (Homo sapiens, UniProt P15309); experiment: Fluorescence polarization (FP) affinity against human ACP3; type: binding; conditions: PSMA ligands as negative controls
T3 construct: made in house; host or cells: CHO cells
T3 sequence (P15309 33-386): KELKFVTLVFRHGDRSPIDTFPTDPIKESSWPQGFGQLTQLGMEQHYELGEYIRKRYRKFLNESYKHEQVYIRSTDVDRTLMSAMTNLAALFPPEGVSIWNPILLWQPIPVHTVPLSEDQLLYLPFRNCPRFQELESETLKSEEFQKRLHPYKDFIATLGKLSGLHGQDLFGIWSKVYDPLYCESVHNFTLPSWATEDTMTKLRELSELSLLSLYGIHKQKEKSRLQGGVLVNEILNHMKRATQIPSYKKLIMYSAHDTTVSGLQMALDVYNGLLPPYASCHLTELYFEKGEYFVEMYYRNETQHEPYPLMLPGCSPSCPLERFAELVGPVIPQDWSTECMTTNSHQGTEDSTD
Procedure: as §1, with “SPR sensograms were fitted with the Biacore X100 Evaluation Software. Flow cytometry data was processed with the FlowJo 10.4 software.” left out
as §4
(§5) Protein dissolved in PBS or HEPES buffer was incubated for 30-60 min with 5 equiv. of EZ-LinkTM NHS-LC-Biotin (Thermo Fisher Scientific, #21336). […] The fractions were measured (absorption at 280 nm) on a Nanodrop 2000 Spectrophotometer to combine protein-containing fractions. […]
as §3

PSMA [3] = target: T2, PSMA; experiment: Size-exclusion chromatography co-elution with PSMA; type: binding; conditions: recombinant PSMA vs GCP3
Procedure: (§6) Selection results were decoded with C++^[ [61] ^] and visualized using MATLAB R2019b (MathWorks). EFs were calculated by dividing the DNA sequence counts for each hit compound by the average DNA sequence count from the corresponding DEL screening. Additionally, Z‐score values were calculated following methods previously published,^[ [60] ^] as present in Supporting Information. Hit compounds with high EFs in the target protein selections and low EFs in the negative controls (anti‐target and streptavidin selections) were selected for hit validation activities. All compounds were synthesized using either solid‐phase peptide synthesis or solution‐phase methodologies. Affinities of fluorescein‐bearing hits were determined by FP or ELISA measurements. […] Binding kinetics were assessed on a Biacore X100 instrument with the target protein immobilized on a CM5 chip at 4′000 RUs. Cell binding of fluorescent ligands was evaluated using flow cytometry against antigen‐positive and antigen‐negative (wild‐type) cancer cells. in vitro tissue uptake of ^177Lu‐labelled DOTAGA PSMA‐radioligands was measured via autoradiography. […]
as §5

human CAIX (hCAIX) = target: T4, human CAIX (hCAIX) (Homo sapiens, UniProt Q16790); experiment: Fluorescence polarization (FP) affinity against hCAIX; type: binding; conditions: fluorescein derivatives
T4 construct: made in house; host or cells: CHO cells
Procedure: A dilution series of target proteins (i.e., PSMA, GCP3, CAIX, CAII) in the respective formulation buffer were separately prepared in a black 384-well plate (non-binding Greiner small volume plate). Test compounds functionalized with fluorescein were diluted to a concentration between 5 and 10 nM (5 μL) and incubated for 15 min with the protein (final volume corresponding to 10 µL). The fluorophore was excited at 485 nm, and anisotropy was measured at 535 nm on a Spectra Max Paradigm multimode plate reader (Tecan). The experiments were performed in triplicate. KD values measured using this FP method can differ from dissociation constants obtained by other physical methods (e.g., surface plasmon resonance, see section below).

murine CAIX (mCAIX) = murine CAIX (mCAIX) (Mus musculus, UniProt Q8VHB5); experiment: Fluorescence polarization (FP) affinity against mCAIX; type: binding
Procedure: as §6, §5

bovine CAII (bCAII) = bovine CAII (bCAII) (Bos taurus, UniProt P00921); experiment: Fluorescence polarization (FP) affinity against bCAII; type: binding
Procedure: as §6, §5

[4] = system: SK-RC-52 renal cell carcinoma cells; experiment: Flow cytometry on SK-RC-52 cells; type: cell-based; conditions: 100 nM

T2 sequence (Q04609 whole entry): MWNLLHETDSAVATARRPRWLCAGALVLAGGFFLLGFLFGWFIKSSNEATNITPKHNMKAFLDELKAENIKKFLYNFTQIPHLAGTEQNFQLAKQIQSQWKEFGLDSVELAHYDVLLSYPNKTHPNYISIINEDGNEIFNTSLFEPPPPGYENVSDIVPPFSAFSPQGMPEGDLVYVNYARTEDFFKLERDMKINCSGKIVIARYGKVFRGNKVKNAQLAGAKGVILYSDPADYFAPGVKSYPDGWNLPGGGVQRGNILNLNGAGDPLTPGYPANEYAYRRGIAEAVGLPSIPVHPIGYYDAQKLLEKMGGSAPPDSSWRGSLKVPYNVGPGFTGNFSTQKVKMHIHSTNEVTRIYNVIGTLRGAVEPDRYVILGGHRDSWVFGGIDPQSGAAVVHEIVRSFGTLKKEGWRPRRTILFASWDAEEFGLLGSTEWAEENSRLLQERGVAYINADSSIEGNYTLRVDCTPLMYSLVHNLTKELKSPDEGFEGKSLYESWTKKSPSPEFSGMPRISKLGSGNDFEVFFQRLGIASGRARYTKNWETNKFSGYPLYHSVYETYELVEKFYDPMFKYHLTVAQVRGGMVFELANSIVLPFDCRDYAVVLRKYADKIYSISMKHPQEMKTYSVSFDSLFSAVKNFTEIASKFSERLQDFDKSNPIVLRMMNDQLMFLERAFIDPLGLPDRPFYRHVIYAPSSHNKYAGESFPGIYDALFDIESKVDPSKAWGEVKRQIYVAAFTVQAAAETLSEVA
Sequence of bovine CAII (bCAII) (P00921 whole entry): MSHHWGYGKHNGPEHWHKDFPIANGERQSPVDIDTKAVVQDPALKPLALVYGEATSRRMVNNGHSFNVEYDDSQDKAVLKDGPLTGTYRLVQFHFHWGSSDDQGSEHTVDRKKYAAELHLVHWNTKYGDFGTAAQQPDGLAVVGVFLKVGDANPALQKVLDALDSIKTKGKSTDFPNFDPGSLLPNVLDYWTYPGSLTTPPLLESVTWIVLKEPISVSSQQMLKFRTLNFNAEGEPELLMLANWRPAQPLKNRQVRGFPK
T1 sequence (Q9Y3Q0 whole entry): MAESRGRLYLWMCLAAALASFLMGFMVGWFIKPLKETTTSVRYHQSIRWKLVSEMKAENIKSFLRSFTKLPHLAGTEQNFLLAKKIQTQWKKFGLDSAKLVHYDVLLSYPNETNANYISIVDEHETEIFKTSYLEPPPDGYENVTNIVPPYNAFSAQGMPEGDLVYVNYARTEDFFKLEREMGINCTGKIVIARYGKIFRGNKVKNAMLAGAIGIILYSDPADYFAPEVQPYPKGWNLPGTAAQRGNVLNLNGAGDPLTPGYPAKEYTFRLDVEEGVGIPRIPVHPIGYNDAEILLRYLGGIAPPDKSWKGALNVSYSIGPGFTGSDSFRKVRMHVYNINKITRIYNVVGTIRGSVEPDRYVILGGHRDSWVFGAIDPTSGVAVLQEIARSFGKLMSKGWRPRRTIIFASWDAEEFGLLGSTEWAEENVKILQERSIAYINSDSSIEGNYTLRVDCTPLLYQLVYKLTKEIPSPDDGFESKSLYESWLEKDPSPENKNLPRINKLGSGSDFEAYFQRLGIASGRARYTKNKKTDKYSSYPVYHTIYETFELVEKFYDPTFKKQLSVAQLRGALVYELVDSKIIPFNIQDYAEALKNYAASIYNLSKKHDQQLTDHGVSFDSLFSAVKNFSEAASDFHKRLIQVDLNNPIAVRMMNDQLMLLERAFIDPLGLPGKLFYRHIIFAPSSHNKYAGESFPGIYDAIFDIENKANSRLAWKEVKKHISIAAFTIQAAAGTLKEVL
Sequence of murine CAIX (mCAIX) (Q8VHB5 32-437): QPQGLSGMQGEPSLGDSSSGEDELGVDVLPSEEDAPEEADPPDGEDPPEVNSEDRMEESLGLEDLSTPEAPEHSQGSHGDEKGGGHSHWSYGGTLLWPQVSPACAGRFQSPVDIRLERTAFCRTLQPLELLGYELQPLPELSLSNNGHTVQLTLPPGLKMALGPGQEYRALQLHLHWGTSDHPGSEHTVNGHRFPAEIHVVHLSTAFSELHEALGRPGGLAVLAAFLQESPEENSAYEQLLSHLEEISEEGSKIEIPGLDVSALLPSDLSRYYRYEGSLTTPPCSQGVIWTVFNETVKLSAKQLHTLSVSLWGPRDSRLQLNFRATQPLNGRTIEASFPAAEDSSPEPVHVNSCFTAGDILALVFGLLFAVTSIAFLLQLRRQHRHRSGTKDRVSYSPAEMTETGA

Kd (GCP3) [nM]	Kd (PSMA [2]) [nM]	binding to human ACP3 by FP (recombinant human ACP3)	Kd (human CAIX (hCAIX)) [nM]	Kd (murine CAIX (mCAIX)) [nM]	Kd (bovine CAII (bCAII)) [nM]	SMILES	binding to PSMA on the cell surface by flow cytometry [1]	co-elution with PSMA in size-exclusion chromatography (PSMA [3])	binding to CAIX on the cell surface by flow cytometry [4]
81	87	did not bind				O=C(O)CC[C@H](NC(=O)N[C@@H](Cc1ccc(I)cc1)C(=O)NCCCCCCNC(=S)Nc1ccc2c(c1)C(=O)OC21c2ccc(O)cc2Oc2cc(O)ccc21)C(=O)O [compound 1]	only compound 5 was able to bind		
	99	did not bind				O=C(O)CC[C@H](NC(=O)N[C@@H](Cc1cccc(I)c1)C(=O)NCCCCCCNC(=S)Nc1ccc2c(c1)C(=O)OC21c2ccc(O)cc2Oc2cc(O)ccc21)C(=O)O [compound 3]	only compound 5 was able to bind		
	13	did not bind				CCOc1ccccc1-c1cccc(C[C@H](NC(=O)N[C@@H](CCC(=O)O)C(=O)O)C(=O)NCCCCCCNC(=S)Nc2ccc3c(c2)C(=O)OC32c3ccc(O)cc3Oc3cc(O)ccc32)c1 [compound 5]	able to bind to the antigen expressed on the tumor cell surface	selective and kinetically stable interaction with PSMA	
			0.95	8.73	150	NS(=O)(=O)c1ccc(-c2cccc(C[C@@H](NC(=O)CCC(=O)N[C@@H](CCCCNC(=S)Nc3ccc4c(c3)C(=O)OC43c4ccc(O)cc4Oc4cc(O)ccc43)C(=O)O)C(=O)NCC3(c4cccs4)CCOCC3)c2)cc1 [compound 21]			bound to the antigen expressed on the surface of cancer cells
			1.85			NS(=O)(=O)c1nnc(Nc2cccc(C[C@@H](NC(=O)CCC(=O)N[C@@H](CCCCNC(=S)Nc3ccc4c(c3)C(=O)OC43c4ccc(O)cc4Oc4cc(O)ccc43)C(=O)O)C(=O)NCC3(c4cccs4)CCOCC3)c2)s1 [compound 24]			bound to the antigen expressed on the surface of cancer cells

From PMC12463120, “Phenylalanine‐Based DNA‐Encoded Chemical Libraries for the Discovery of Potent and Selective Small Organic Ligands Against Markers of Cancer and Immune Cells” (Advanced Science, 2025)
